For the test, the target named is T1, PD-1-Ig binding to PD-L1-TVMV-His (PD-L1-His) (Homo sapiens, UniProt Q9NZQ7).
T1 construct: hPDL1(19-239)-TVMV-His; made in house; host or cells: HEK293T
Nature of the test: PD-1/PD-L1 Homogenous Time-Resolved Fluorescence (HTRF) binding assay. As to conditions: PD-L1-His 10 nM, PD-1-Ig 20 nM. The source says: Methods for Testing the Ability of Macrocyclic Peptides to Compete for the Binding of Pd-1 to Pd-L1 Using Homogenous Time-Resolved Fluorescence (HTRF) Binding Assays
The ability of the macrocyclic peptides of the present disclosure to bind to PD-L1 was investigated using a PD-1/PD-L1 Homogenous Time-Resolved Fluorescence (HTRF) binding assay.
Homogenous Time-Resolved Fluorescence (HTRF) Assays of Binding of Soluble PD-1 to Soluble PD-L1. Soluble PD-1 and soluble PD-L1 refers to proteins with carboxyl-end truncations that remove the transmembrane-spanning regions and are fused to heterologous sequences, specifically the Fc portion of the human immunoglobuling G sequence (Ig) or the hexahistidine epitope tag (His). All binding studies were performed in an HTRF assay buffer consisting of dPBS supplemented with 0.1% (w/v) bovine serum albumin and 0.05% (v/v) Tween-20. For the PD-1-Ig/PD-L1-His binding assay, inhibitors were pre-incubated with PD-L1-His (10 nM final) for 15 m in 4 μl of assay buffer, followed by addition of PD-1-Ig (20 nM final) in 1 μl of assay buffer and further incubation for 15 m. PD-L1 fusion proteins from either human, cynomologous macaques, mouse, or other species were used. HTRF detection was achieved using europium crypate-labeled anti-Ig monoclonal antibody (1 nM final) and allophycocyanin (APC) labeled anti-His monoclonal antibody (20 nM final). Antibodies were diluted in HTRF detection buffer and 5 μl was dispensed on top of binding reaction. The reaction was allowed to equilibrate for 30 minutes and signal (665 nm/620 nm ratio) was obtained using an EnVision fluorometer. Additional binding assays were established between PD-1-Ig/PD-L2-His (20 and 5 nM, respectively), CD80-His/PD-L1-Ig (100 and 10 nM, respectively) and CD80-His/CTLA4-Ig (10 and 5 nM, respectively). Binding/competition studies between biotinylated Compound No. 71 and human PD-L1-His were performed as follows. Macrocyclic peptide inhibitors were pre-incubated with PD-L1-His (10 nM final) for 60 minutes in 4 μl of assay buffer followed by addition of biotinylated Compound No. 71 (0.5 nM final) in 1 μl of assay buffer. Binding was allowed to equilibrate for 30 minutes followed by addition of europium crypated labeled Streptavidin (2.5 pM final) and APC-labeled anti-His (20 nM final) in 5 μl of HTRF buffer. The reaction was allowed to equilibrate for 30 m and signal (665 nm/620 nm ratio) was obtained using an EnVision fluorometer.
Recombinant Proteins. Carboxyl-truncated human PD-1 (amino acids 25-167) with a C-terminal human Ig epitope tag [hPD-1 (25-167)-3S-IG] and human PD-L1 (amino acids 18-239) with a C-terminal His epitope tag [hPD-L1(19-239)-tobacco vein mottling virus protease cleavage site (TVMV)-His] were expressed in HEK293T cells and purified sequentially by recombinant Protein A affinity chromatography and size exclusion chromatography. Human PD-L2-His (Sino Biologicals), CD80-His (Sino Biologicals), CTLA4-Ig (RnD Systems) were all obtained through commercial sources.
Ranges are as follows: A=0.10-10 μM; B=0.01-0.099 μM; C=0.005-0.0099 μM.
(Time-resolved FRET reads energy transfer from a long-lived donor to a nearby acceptor.)

Numbered stars: 1 amine (or outer) side, 2 acyl side, 3 side chain; on linkers, the order of the positions; unused ones are H or OH. Bridge positions count the residues as written; N and C are the ends. Square brackets hold non-standard residues; d marks the D form. Peptide text beside a SMILES is read from it. X6 = O=C(O)CC[C@H](CC(=O)[C@H](Cc1cnc[nH]1)N[*:1])C(=O)[*:2]; X5 = CCCC[C@@H](C(=O)[*:2])N(CC)[*:1]; X2 = C[C@@H](C(=O)[*:2])N(CCN)[*:1]; X1 = O=C(CN(CCC(F)(F)F)[*:1])[*:2]; NBnAla = C[C@H](NCc1ccccc1)C(=O)O; Hyp = O=C(O)[C@@H]1C[C@@H](O)CN1; Gly(N-CH2CH2OH) = O=C(O)CNCCO; NMeNle = CCCC[C@H](NC)C(=O)O; NEtAla = CCN[C@@H](C)C(=O)O; NMeA = CN[C@@H](C)C(=O)O; Dab = NCC[C@H](N)C(=O)O

T1 sequence (Q9NZQ7 with tags, fused parts or gaps): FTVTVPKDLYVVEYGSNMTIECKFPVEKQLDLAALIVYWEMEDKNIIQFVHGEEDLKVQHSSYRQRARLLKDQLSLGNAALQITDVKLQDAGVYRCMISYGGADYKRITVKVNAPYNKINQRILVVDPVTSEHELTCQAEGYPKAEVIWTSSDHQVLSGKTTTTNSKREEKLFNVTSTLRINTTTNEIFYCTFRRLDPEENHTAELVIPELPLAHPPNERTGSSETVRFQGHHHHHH

Usually IC50 stands for the midpoint of a concentration-inhibition curve. For the compound `CCCC[C@H]1C(=O)N(C)[C@@H](CCCC)C(=O)N[C@@H](CC(C)C)C(=O)N[C@H](C(=O)NCC(N)=O)CSCC(=O)N[C@@H](Cc2ccc(O)cc2)C(=O)N(Cc2ccccc2)[C@@H](C)C(=O)N[C@@H](CC(N)=O)C(=O)N2CCC[C@H]2C(=O)N[C@@H](Cc2cnc[nH]2)C(=O)N[C@@H](CCC(=O)O)C(=O)N2C[C@H](O)C[C@H]2C(=O)N[C@@H](Cc2c[nH]c3ccccc23)C(=O)N[C@@H](CCN)C(=O)N[C@@H](Cc2c[nH]c3ccccc23)C(=O)N1C` [Example 3019] ({CH2CO}-Y[NBnAla]NPHE[Hyp]W[Dab]W[NMeNle][NMeNle]LCG-NH2; thioether N-14), the concentration for half-maximal inhibition (IC50) (range class) lay within 10 to 99 nM.

`CCCC[C@H]1C(=O)N(CC)[C@@H](CCCC)C(=O)N[C@@H](CC(C)C)C(=O)N[C@H](C(=O)NCC(N)=O)CSCC(=O)N[C@@H](Cc2ccc(O)cc2)C(=O)N(C)[C@@H](C)C(=O)N[C@@H](CC(N)=O)C(=O)N2CCC[C@H]2C(=O)N[C@@H](Cc2cnc[nH]2)C(=O)N[C@@H](CCC(=O)O)C(=O)N2C[C@H](O)C[C@H]2C(=O)N[C@@H](Cc2c[nH]c3ccccc23)C(=O)N[C@@H](CCN)C(=O)N[C@@H](Cc2c[nH]c3ccccc23)C(=O)N1C` [Example 3021] ({CH2CO}-Y[NMeA]NPHE[Hyp]W[Dab]W[NMeNle][X5]LCG-NH2; thioether N-14) registered an IC50 (range class) of 5 to 9.9 nM.

Under “range class”, `CCCC[C@H]1C(=O)N(C)[C@@H](CCCC)C(=O)N[C@@H](CC(C)C)C(=O)N[C@H](C(=O)NCC(N)=O)CSCC(=O)N[C@@H](Cc2ccc(O)cc2)C(=O)N(C)[C@@H](C)C(=O)N[C@@H](CC(N)=O)C(=O)N2CCC[C@H]2C(=O)N[C@@H](Cc2c[nH]cn2)C(=O)N[C@@H](CCC(=O)O)C(=O)N(CC(=O)O)CC(=O)N[C@@H](Cc2c[nH]c3ccccc23)C(=O)N[C@@H](CCN)C(=O)N[C@@H](Cc2csc3ccccc23)C(=O)N1C` [Example 5001] had an IC50 of 5 to 9.9 nM.

In the case of `CCCC[C@H]1C(=O)N(C)[C@@H](CCCC)C(=O)N[C@@H](CC(C)C)C(=O)N[C@H](C(=O)NCC(N)=O)CSCC(=O)N[C@@H](Cc2ccc(O)cc2)C(=O)N(CC(=O)O)CC(=O)N[C@@H](CC(N)=O)C(=O)N2CCC[C@H]2C(=O)N[C@@H](Cc2cnc[nH]2)C(=O)N[C@@H](CCC(=O)O)C(=O)N2C[C@H](O)C[C@H]2C(=O)N[C@@H](Cc2c[nH]c3ccccc23)C(=O)N[C@@H](CCN)C(=O)N[C@@H](Cc2c[nH]c3ccccc23)C(=O)N1C` [Example 3044], where the note is “range class”, the half-inhibitory concentration (IC50) was in the range of 10 to 99 nM.

As for `CCCC[C@H]1C(=O)N(C)[C@@H](CCCC)C(=O)N[C@@H](CC(C)C)C(=O)N[C@H](C(=O)NCC(N)=O)CSCC(=O)N[C@@H](Cc2ccc(O)cc2)C(=O)N(CCO)CC(=O)N[C@@H](CC(N)=O)C(=O)N2CCC[C@H]2C(=O)N[C@@H](Cc2cnc[nH]2)C(=O)N[C@@H](CCC(=O)O)C(=O)N2C[C@H](O)C[C@H]2C(=O)N[C@@H](Cc2c[nH]c3ccccc23)C(=O)N[C@@H](CCN)C(=O)N[C@@H](Cc2c[nH]c3ccccc23)C(=O)N1C` [Example 3045] ({CH2CO}-Y[Gly(N-CH2CH2OH)]NPHE[Hyp]W[Dab]W[NMeNle][NMeNle]LCG-NH2; thioether N-14), the IC50 (range class) was in the range of 10 to 99 nM.

`CCCC[C@H]1C(=O)N(C)[C@@H](CCCC)C(=O)N[C@@H](CC(C)C)C(=O)N[C@H](C(=O)NCC(N)=O)CSCC(=O)N[C@@H](Cc2ccc(O)cc2)C(=O)N(CC)[C@@H](C)C(=O)N[C@@H](CC(N)=O)C(=O)N2CCC[C@H]2C(=O)N[C@@H](Cc2cnc[nH]2)C(=O)C[C@@H](CCC(=O)O)C(=O)N2C[C@H](O)C[C@H]2C(=O)N[C@@H](Cc2c[nH]c3ccccc23)C(=O)N[C@@H](CCN)C(=O)N[C@@H](Cc2c[nH]c3ccccc23)C(=O)N1C` [Example 3017] ({CH2CO}-Y[NEtAla]NP[X6][Hyp]W[Dab]W[NMeNle][NMeNle]LCG-NH2; thioether N-13) gave an IC50 (range class) of 5 to 9.9 nM.

With `CCCC[C@H]1C(=O)N[C@@H](CC(C)C)C(=O)N[C@H](C(=O)NCC(N)=O)CSCC(=O)N[C@@H](Cc2ccc(O)cc2)C(=O)N(C)[C@@H](C)C(=O)N[C@@H](CC(N)=O)C(=O)N2CCC[C@H]2C(=O)N[C@@H](Cc2cnc[nH]2)C(=O)N[C@@H](CCC(=O)O)C(=O)N2C[C@H](O)C[C@H]2C(=O)N[C@@H](Cc2c[nH]c3ccccc23)C(=O)N[C@@H](CCN)C(=O)N[C@@H](Cc2c[nH]c3ccccc23)C(=O)N(CC(=O)O)CC(=O)N1C` [Example 3037], the IC50 (range class) is 100 to 10000 nM.

Where the note is “numeric value”, `CCCC[C@H]1C(=O)N(C)[C@@H](CCCC)C(=O)N[C@@H](CC(C)C)C(=O)N[C@H](C(=O)NCC(N)=O)CSCC(=O)N[C@@H](Cc2ccc(O)cc2)C(=O)N(C)[C@@H](C)C(=O)N[C@@H](CC(N)=O)C(=O)N2CCC[C@H]2C(=O)N[C@@H](Cc2cnc[nH]2)C(=O)N[C@@H](CCC(=O)O)C(=O)N(CC(=O)O)CC(=O)N[C@@H](Cc2c[nH]c3ccccc23)C(=O)N[C@@H](CCN)C(=O)N[C@@H](Cc2c[nH]c3ccccc23)C(=O)N1C` [Example 3005] came in with an IC50 of 30 nM.

`CCCC[C@H]1C(=O)N[C@@H](CC(C)C)C(=O)N[C@H](C(=O)NCC(N)=O)CSCC(=O)N[C@@H](Cc2ccc(O)cc2)C(=O)N(C)[C@@H](C)C(=O)N[C@@H](CC(N)=O)C(=O)N2CCC[C@H]2C(=O)N[C@@H](Cc2cnc[nH]2)C(=O)N[C@@H](CCC(=O)O)C(=O)N2C[C@H](O)C[C@H]2C(=O)N[C@@H](Cc2c[nH]c3ccccc23)C(=O)N[C@@H](CCN)C(=O)N[C@@H](Cc2c[nH]c3ccccc23)C(=O)N(CCN)[C@@H](C)C(=O)N1C` [Example 3022] ({CH2CO}-Y[NMeA]NPHE[Hyp]W[Dab]W[X2][NMeNle]LCG-NH2; thioether N-14) yielded an IC50 (range class) of 10 to 99 nM.

In the case of `CCCC[C@H]1C(=O)N(C)[C@@H](CCCC)C(=O)N[C@@H](CC(C)C)C(=O)N[C@H](C(=O)NCC(N)=O)CSCC(=O)N[C@@H](Cc2ccc(O)cc2)C(=O)N(C)[C@@H](C)C(=O)N[C@@H](CC(N)=O)C(=O)N(CCC(F)(F)F)CC(=O)N[C@@H](Cc2cnc[nH]2)C(=O)N[C@@H](CCC(=O)O)C(=O)N2C[C@H](O)C[C@H]2C(=O)N[C@@H](Cc2c[nH]c3ccccc23)C(=O)N[C@@H](CCN)C(=O)N[C@@H](Cc2c[nH]c3ccccc23)C(=O)N1C` [Example 3010] ({CH2CO}-Y[NMeA]N[X1]HE[Hyp]W[Dab]W[NMeNle][NMeNle]LCG-NH2; thioether N-14), the IC50 (range class) was 10 to 99 nM.

In turn, `CCCC[C@H]1C(=O)N[C@@H](CC(C)C)C(=O)N[C@H](C(=O)NCC(N)=O)CSCC(=O)N[C@@H](Cc2ccc(O)cc2)C(=O)N(C)[C@@H](C)C(=O)N[C@@H](CC(N)=O)C(=O)N2CCC[C@H]2C(=O)N[C@@H](Cc2cnc[nH]2)C(=O)N[C@@H](CCC(=O)O)C(=O)N2C[C@H](O)C[C@H]2C(=O)N[C@@H](Cc2c[nH]c3ccccc23)C(=O)N[C@@H](CCN)C(=O)N[C@@H](Cc2c[nH]c3ccccc23)C(=O)N(CC)[C@@H](C)C(=O)N1C` [Example 3024] ({CH2CO}-Y[NMeA]NPHE[Hyp]W[Dab]W[NEtAla][NMeNle]LCG-NH2; thioether N-14) showed an IC50 (range class) of 10 to 99 nM.

Turning to `CCCC[C@H]1C(=O)N(C)[C@@H](CCCC)C(=O)N[C@@H](CC(C)C)C(=O)N[C@H](C(=O)NCC(N)=O)CSCC(=O)N[C@@H](Cc2ccc(O)cc2)C(=O)N(CCN)[C@@H](C)C(=O)N[C@@H](CC(N)=O)C(=O)N2CCC[C@H]2C(=O)N[C@@H](Cc2cnc[nH]2)C(=O)N[C@@H](CCC(=O)O)C(=O)N2C[C@H](O)C[C@H]2C(=O)N[C@@H](Cc2c[nH]c3ccccc23)C(=O)N[C@@H](CCN)C(=O)N[C@@H](Cc2c[nH]c3ccccc23)C(=O)N1C` [Example 3032] ({CH2CO}-Y[X2]NPHE[Hyp]W[Dab]W[NMeNle][NMeNle]LCG-NH2; thioether N-14), the half-maximal inhibitory concentration (IC50) (range class) fell in the range of 10 to 99 nM.
